Where two headings read alike, the source gives them in different places.
Biological target: T1, CFTR (Homo sapiens, UniProt P13569)
T1 construct: endogenous in cells; host or cells: T84 human colonic cells (ECACC)
Assay: T84 assay (FLIPR membrane potential dye, forskolin/IBMX-stimulated CFTR channel activity)
Assay type: cell-based
Method in brief: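 Fluorescence from a membrane potential dye in T84 monolayers (HBSS with 10 mM Hepes) is followed each second for 150 s. Cells are exposed to test compound during the 45 min dye loading, then challenged with forskolin (10 μM) and IBMX (100 μM) to open CFTR. Inhibitors suppress the depolarization-driven fluorescence increase.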

[1] = imidazole and triazole-containing compounds (Tables 13, 14, 14′), read-out: IC50 (μM) (T84 assay)
[2] = oxadiazole-containing compounds (a series), average of at least 2 runs unless annotated n = 1, read-out: IC50
[3] = triazine-containing compounds (Table 8 and 8′), read-out: IC50

T1 sequence (P13569 whole entry): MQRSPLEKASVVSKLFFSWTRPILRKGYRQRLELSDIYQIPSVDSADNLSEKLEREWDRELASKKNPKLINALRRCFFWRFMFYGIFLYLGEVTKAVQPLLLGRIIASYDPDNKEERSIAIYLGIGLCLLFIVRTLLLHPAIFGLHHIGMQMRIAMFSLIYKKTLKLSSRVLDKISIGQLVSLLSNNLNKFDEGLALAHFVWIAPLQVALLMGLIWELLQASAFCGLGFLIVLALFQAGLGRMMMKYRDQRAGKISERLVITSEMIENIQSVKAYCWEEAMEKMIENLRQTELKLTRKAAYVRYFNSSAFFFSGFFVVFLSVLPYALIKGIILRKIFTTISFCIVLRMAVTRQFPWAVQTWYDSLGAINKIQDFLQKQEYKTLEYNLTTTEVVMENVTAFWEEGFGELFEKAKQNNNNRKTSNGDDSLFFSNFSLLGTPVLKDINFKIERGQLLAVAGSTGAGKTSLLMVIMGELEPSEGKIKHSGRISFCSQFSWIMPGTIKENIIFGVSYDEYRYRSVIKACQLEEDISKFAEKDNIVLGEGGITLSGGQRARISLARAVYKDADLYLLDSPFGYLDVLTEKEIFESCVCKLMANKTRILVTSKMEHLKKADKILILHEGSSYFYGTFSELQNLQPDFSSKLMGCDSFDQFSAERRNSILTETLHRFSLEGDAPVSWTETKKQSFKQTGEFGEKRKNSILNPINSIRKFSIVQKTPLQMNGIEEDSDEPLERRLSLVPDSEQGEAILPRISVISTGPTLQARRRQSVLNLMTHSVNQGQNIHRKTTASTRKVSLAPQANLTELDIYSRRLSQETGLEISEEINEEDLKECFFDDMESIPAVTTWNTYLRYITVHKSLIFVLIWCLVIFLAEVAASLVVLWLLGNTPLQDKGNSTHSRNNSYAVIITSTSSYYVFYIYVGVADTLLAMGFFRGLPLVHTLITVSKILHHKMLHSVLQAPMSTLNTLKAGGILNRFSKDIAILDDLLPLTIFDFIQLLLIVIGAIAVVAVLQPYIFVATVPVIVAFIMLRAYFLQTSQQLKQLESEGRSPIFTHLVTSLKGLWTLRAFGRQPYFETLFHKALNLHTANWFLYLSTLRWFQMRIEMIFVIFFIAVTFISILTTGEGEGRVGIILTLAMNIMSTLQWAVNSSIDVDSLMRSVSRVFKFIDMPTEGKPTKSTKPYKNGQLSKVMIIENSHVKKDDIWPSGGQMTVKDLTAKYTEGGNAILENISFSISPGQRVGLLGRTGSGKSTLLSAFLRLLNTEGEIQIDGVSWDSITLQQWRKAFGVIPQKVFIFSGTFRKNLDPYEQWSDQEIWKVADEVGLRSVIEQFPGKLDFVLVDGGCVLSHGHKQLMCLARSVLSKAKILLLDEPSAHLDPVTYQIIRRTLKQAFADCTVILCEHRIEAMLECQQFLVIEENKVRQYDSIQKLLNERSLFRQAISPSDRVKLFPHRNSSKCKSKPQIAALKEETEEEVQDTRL

CC(C)(C)CCN(Cc1cccc(OC(F)(F)F)c1)C(=O)c1ncn(-c2cc(Cl)c(O)c(Cl)c2)n1 [77i, 1-(3,5-dichloro-4-hydroxyphenyl)-N-(3,3-dimethylbutyl)-N-(3-(trifluoromethoxy)benzyl)-1H-1,2,4-triazole-3-carboxamide]
IC50 [1]: 3.01 µM

O=C(c1noc(-c2cc(Cl)c(O)c(Cl)c2)n1)N1CCC(Cc2ccccc2)CC1 [78a, (4-benzylpiperidin-l-yl)(5-(3,5-dichloro-4-hydroxyphenyl)-1,2,4-oxadiazol-3-yl)methanone]
IC50 [2]: 11.2 µM

O=C(NCc1ccc(Oc2ccccc2)cc1)c1noc(-c2cc(Cl)c(O)c(Cl)c2)n1 [79a, 5-(3,5-dichloro-4-hydroxyphenyl)-N-(4-phenoxybenzyl)-1,2,4-oxadiazole-3-carboxamide]
IC50 [2]: 17.5 µM

CC(C)(C)CCN(Cc1cccc(C(F)(F)F)c1)C(=O)c1ncn(-c2cc(Cl)c(O)c(Cl)c2)n1 [79i, 1-(3,5-dichloro-4-hydroxyphenyl)-N-(3,3-dimethylbutyl)-N-(3-(trifluoromethyl)benzyl)-1H-1,2,4-triazole-3-carboxamide]
IC50 [1]: 2.23 µM

O=C(NCc1ccc(F)c(F)c1)c1noc(-c2cc(Cl)c(O)c(Cl)c2)n1 [80a, 5-(3,5-dichloro-4-hydroxyphenyl)-N-(3,4-difluorobenzyl)-1,2,4-oxadiazole-3-carboxamide]
IC50 [2]: 8.14 µM

Cc1ccc(CNC(=O)c2noc(-c3cc(Cl)c(O)c(Cl)c3)n2)cc1 [81a, 5-(3,5-dichloro-4-hydroxyphenyl)-N-(4-methylbenzyl)-1,2,4-oxadiazole-3-carboxamide]
IC50 [2]: 14.8 µM

O=C(NCc1ccccc1Cl)c1noc(-c2cc(Cl)c(O)c(Cl)c2)n1 [83a, N-(2-chlorobenzyl)-5-(3,5-dichloro-4-hydroxyphenyl)-1,2,4-oxadiazole-3-carboxamide]
IC50 [2]: 7.28 µM

CN(Cc1ccc(Cl)cc1)C(=O)c1noc(-c2cc(Cl)c(O)c(Cl)c2)n1 [84a, N-(4-chlorobenzyl)-5-(3,5-dichloro-4-hydroxyphenyl)-N-methyl-1,2,4-oxadiazole-3-carboxamide]
IC50 [2]: 4.03 µM

O=C(c1ncn(-c2cc(Cl)c(O)c(Cl)c2)n1)N(Cc1ccccc1)Cc1cccc(OC(F)(F)F)c1 [84i, N-benzyl-1-(3,5-dichloro-4-hydroxyphenyl)-N-(3-(trifluoromethoxy)benzyl)-1H-1,2,4-triazole-3-carboxamide]
IC50 [1]: 6.81 µM

O=C(NCc1cc(Cl)cc(Cl)c1)c1noc(-c2cc(Cl)c(O)c(Cl)c2)n1 [85a, 5-(3,5-dichloro-4-hydroxyphenyl)-N-(3,5-dichlorobenzyl)-1,2,4-oxadiazole-3-carboxamide]
IC50 [2]: 2.33 µM

O=C(c1ncn(-c2cc(Cl)c(O)c(Cl)c2)n1)N(Cc1ccccc1)Cc1cccc(C(F)(F)F)c1 [85i, N-benzyl-1-(3,5-dichloro-4-hydroxyphenyl)-N-(3-(trifluoromethyl)benzyl)-1H-1,2,4-triazole-3-carboxamide]
IC50 [1]: 3.16 µM

O=C(NCc1cccc(Cl)c1)c1noc(-c2cc(Cl)c(O)c(Cl)c2)n1 [86a, N-(3-chlorobenzyl)-5-(3,5-dichloro-4-hydroxyphenyl)-1,2,4-oxadiazole-3-carboxamide]
IC50 [2]: 2.12 µM

CN(Cc1ccc(C(F)(F)F)cc1)C(=O)c1noc(-c2cc(Cl)c(O)c(Cl)c2)n1 [87a, 5-(3,5-dichloro-4-hydroxyphenyl)-N-methyl-N-(4-(trifluoromethyl)benzyl)-1,2,4-oxadiazole-3-carboxamide]
IC50 [2]: 3.42 µM

O=C(NCc1ccccc1C(F)(F)F)c1noc(-c2cc(Cl)c(O)c(Cl)c2)n1 [88a, 5-(3,5-dichloro-4-hydroxyphenyl)-N-(2-(trifluoromethyl)benzyl)-1,2,4-oxadiazole-3-carboxamide]
IC50 [2]: 6.2 µM

O=C(c1nc(-c2cc(Cl)c(O)c(Cl)c2)no1)N(Cc1cccnc1)Cc1cccc(C(F)(F)F)c1 [89a, 3-(3,5-dichloro-4-hydroxyphenyl)-N-(pyridin-3-ylmethyl)-N-(3-(trifluoromethyl)benzyl)-1,2,4-oxadiazole-5-carboxamide]
IC50 [2]: 2.52 µM

Oc1c(Br)cc(-c2cnc(OCc3cccc(OCc4ccccc4)c3)nn2)cc1Br [89e, 4-(3-(3-(benzyloxy)benzyloxy)-1,2,4-triazin-6-yl)-2,6-dibromophenol]
IC50 [3]: 1.47 µM

O=C(CN(Cc1cccc(C(F)(F)F)c1)C(=O)c1nc(-c2cc(Cl)c(O)c(Cl)c2)no1)c1ccccc1 [90a, 3-(3,5-dichloro-4-hydroxyphenyl)-N-(2-oxo-2-phenylethyl)-N-(3-(trifluoromethyl)benzyl)-1,2,4-oxadiazole-5-carboxamide]
IC50 [2]: 8.38 µM

CN(Cc1cccc(C(F)(F)F)c1)C(=O)c1n[nH]c(-c2cc(Cl)c(O)c(Cl)c2)n1 [90c, 5-(3,5-dichloro-4-hydroxyphenyl)-N-methyl-N-(3-(trifluoromethyl)benzyl)-1H-1,2,4-triazole-3-carboxamide]
IC50 (triazole-containing compounds (c series), average of at least 2 runs unless annotated n = 1, read-out: IC50): 24.1 µM

CC(C)(C)C(=O)CN(Cc1cccc(C(F)(F)F)c1)C(=O)c1nc(-c2cc(Cl)c(O)c(Cl)c2)no1 [91a, 3-(3,5-dichloro-4-hydroxyphenyl)-N-(3,3-dimethyl-2-oxobutyl)-N-(3-(trifluoromethyl)benzyl)-1,2,4-oxadiazole-5-carboxamide]
IC50 [2]: 2.15 µM

CC(C)(C)C(=O)N1CCN(C(=O)c2nc(-c3cc(Br)c(O)c(Br)c3)no2)CC1 [93a, 1-(4-(3-(3,5-dibromo-4-hydroxyphenyl)-1,2,4-oxadiazole-5-carbonyl)piperazin-1-yl)-2,2-dimethylpropan-1-one]
IC50 [2]: 5.8 µM

CC#CCN(Cc1cccc(C(F)(F)F)c1)C(=O)c1nc(-c2cc(Cl)c(O)c(Cl)c2)no1 [98a, N-(but-2-ynyl)-3-(3,5-dichloro-4-hydroxyphenyl)-N-(3-(trifluoromethyl)benzyl)-1,2,4-oxadiazole-5-carboxamide]
IC50 [2]: 2.86 µM

O=C(c1nc(-c2cc(Cl)c(O)c(Cl)c2)no1)N(Cc1cccc(C(F)(F)F)c1)Cc1cccc(C(F)(F)F)c1 [101a, 3-(3,5-dichloro-4-hydroxyphenyl)-N,N-bis(3-(trifluoromethyl)benzyl)-1,2,4-oxadiazole-5-carboxamide]
IC50 [2]: 6.71 µM

N#Cc1ccc(COc2ncc(-c3cc(Br)c(O)c(Br)c3)nn2)cc1 [101e, 4-((6-(3,5-dibromo-4-hydroxyphenyl)-1,2,4-triazin-3-yloxy)methyl)benzonitrile]
IC50 [3]: 3.49 µM

C=CCN(Cc1ccc(C(C)C)cc1)C(=O)c1ncn(-c2cc(Cl)c(O)c(Cl)c2)n1 [101i, N-allyl-1-(3,5-dichloro-4-hydroxyphenyl)-N-(4-isopropylbenzyl)-1H-1,2,4-triazole-3-carboxamide]
IC50 [1]: 0.76 µM

O=C(NCc1cccc(F)c1F)c1noc(-c2cc(Cl)c(O)c(Cl)c2)n1 [102a, 5-(3,5-dichloro-4-hydroxyphenyl)-N-(2,3-difluorobenzyl)-1,2,4-oxadiazole-3-carboxamide]
IC50 [2]: 10.1 µM

O=C(NCc1c(F)cccc1F)c1noc(-c2cc(Cl)c(O)c(Cl)c2)n1 [103a, 5-(3,5-dichloro-4-hydroxyphenyl)-N-(2,6-difluorobenzyl)-1,2,4-oxadiazole-3-carboxamide]
IC50 [2]: 9.64 µM

O=C(Nc1ccc(Oc2ccccc2)cc1)c1nc(-c2cc(Br)c(O)c(Br)c2)no1 [104a, 3-(3,5-dibromo-4-hydroxyphenyl)-N-(4-phenoxyphenyl)-1,2,4-oxadiazole-5-carboxamide]
IC50 [2]: 23 µM

CC(C)(C)CCNC(=O)c1nc(-c2cc(Br)c(O)c(Br)c2)no1 [105a, 3-(3,5-dibromo-4-hydroxyphenyl)-N-(3,3-dimethylbutyl)-1,2,4-oxadiazole-5-carboxamide]
IC50 [2]: 23.1 µM
